Measurements taken from patent publication US12565458B2, “Granulated agricultural composition comprising macro- and micronutrients, and related methods” (YPF SOCIEDAD ANÓNIMA, priority 2021, dated 2026).

Tested on: wheat
Assay: Field experiment 2, Zn impregnation on urea, wheat 2018 (Example 5)
Format: in vivo, wheat (SY 120)
Parameters: WG (weight of grains): unit not given here

## NC(N)=O [Urea 200]
Wheat grain yield, Pergamino 2018
  Yield: 5136.4 kg ha^−1
wheat, Z25, Pergamino 2018
  Dry M Z25 (initial dry matter): 2450.0
wheat, Z65, Pergamino 2018
  Coverage and Intercep. Z65: 91.7
  NDVI GS 65 (Green seeker): 0.40
  Plant height: 75.0 cm
  Spad Z65 (green intensity): 40.8 Spad units
wheat, Z65, index 1 minimum 5 maximum
  Vigor Z65 (1-5): 3.9
wheat, Zn impregnation on Urea, Pergamino 2018
  Plants m^−2 (number of emerged plants): 239.0 m^−2
wheat, harvest, Pergamino 2018
  NG m^−2 (number of grains): 16410.1 m^−2
  WG (weight of grains): 31.3
